Measurements reported in patent US4634706A, “Griseolic acid derivatives, and their use as enzyme inhibitors” (Sankyo Company Limited, priority 1983, dated 1987).

How the values were obtained:
[1] = biological target: cAMP PDE; test: Phosphodiesterase (PDE) inhibitory activity, cAMP substrate; type: biochemical, rat; conditions: for IC50: 0.14 μM 14C-labeled cAMP, pH 8.0, 30° C., 20 minutes, crude enzyme from rat brains, read-out: I50 cAMP PDE
Procedure: (§1) The test was carried out following essentially the method of A. L. Pichard and Y. U. Chung [Journal of Biological Chemistry, 251, 5726-5737 (1976)]. A crude enzymatic solution derived from rat brains was used as the source of cAMP PDE.
(§2) ^14 C-labeled cAMP was used as the substrate. It was employed in a 0.2M Tris-hydrochloric acid buffer solution (pH 8.0) in an amount sufficient to provide a final concentration of 0.14 μM. "Tris" is tris(hydroxymethyl)aminomethane. The substrate solution was mixed with an appropriate amount of the compound under test dissolved in 2-5 μl of dimethyl sulfoxide and with 20 μl of a snake venom solution and 40 μl of the crude enzyme solution. Sufficient Tris-hydrochloric acid buffer was added to make a total volume of 100 μl. The mixture was allowed to react at 30° C. for 20 minutes. At the end of this time, the reaction mixture was treated with an Amberlite (trade mark) IRP-58 resin and the level of residual adenosine radioactivity in the product was determined.

[2] = biological target: cGMP PDE; test: Phosphodiesterase (PDE) inhibitory activity, cGMP substrate; type: biochemical; conditions: cGMP as substrate, crude enzyme from rat brains; read-out: I50 cGMP PDE
Procedure: as §1, §2
The experiment was repeated, except that cyclic guanosine monophosphate (cGMP) was employed as the substrate instead of cAMP. The I50 value against cGMP PDE was also calculated.

[3] = tested on: cerebral blood flow; test: Improving cerebral blood flow; type: in vivo, rabbit
From the text: The "duration (T1/2)" is the time in minutes required for the increase in cerebral blood flow to reduce by one half.

[4] = tested on: blood viscosity; test: Improvement in blood viscosity; type: in vivo, male Wistar rats; design: key to blood viscosity, shear rates without significant rise after ligation: for each shear rate where no significant rise in […] was noted (P<0.05) between the pre-ligation and post-ligation values there is printed a single plus sign (+); ++++: no significant difference in viscosity between the pre-ligation and post-ligation values at any of the four shear rates; conditions: for minimal effective dose: Rattus norvegicus, read-out: dose at which significant improvement (i.e. stabilisation) in blood viscosity was achieved
Procedure: The test animals were male Wistar rats; they were employed in groups of five for each test. The rats were anaesthetized with pentobartibal and simultaneously the test compound was administered orally at the dose specified in Table 5 in a carboxymethyl cellulose suspension. Promptly, an incision was made in the neck and a 0.5 ml blood sample was collected from the jugular vein. The viscosity of this sample was determined by means of a rotational viscometer.
Thirty minutes after oral administration, the common carotid artery was ligated bilaterally. One hour thereafter (i.e. 90 minutes after oral administration), a further 0.5 ml blood sample was collected from the jugular vein and its viscosity was determined in the same manner.
The mean blood viscosity of each test animal and its standard deviation were calculated for each of the four shear rates (37.5, 75, 150 and 375 s^-1) of the rotational viscometer. The pre-ligation and post-ligationvalues of each group (i.e. the change over a period of 60 minutes) were analysed by the statistical t-test. The results are reported in Table 5 as follows: for each shear rate where no significant rise in […] was noted (P<0.05) between the pre-ligation and post-ligation values there is printed a single plus sign (+). Thus, for example, if there was no significant difference in viscosity between the pre-ligation and post-ligation values at any of the four shear rates, the results will be ++++.

[5] = tested on: rats; test: Toxicity (mortality of male Fisher rats, daily doses for four days); type: in vivo, male rats of the Fisher strain; conditions: 100 mg/kg daily
Procedure: The compounds under test were griseolic acid and Compounds No. 26 and 51 from the list of compounds of the invention set out hereinabove. The test animals were male rats of the Fisher strain. The rats were employed in groups of five for each test.
The compounds under test were administered at single daily doses of 50 mg/kg or 100 mg/kg throughout the four days of the test.

[6] = tested on: erythrocytes; test: Effect on recovery of erythrocyte flexibility reduced by acidosis; type: in vivo, rat; conditions: 50 mg/kg orally, blood pH 5.1, P < 0.05
Procedure: Mature male rats were employed in this experiment in groups of five for each test. The compound under test was suspended in an aqueous solution of carboxymethylcellulose and administered orally. Two hours after administration, the rats were anaesthetized with pentobarbital and a 5 ml blood sample was taken from the heart. Its pH was adjusted to 5.1 and the sample was allowed to stand. The fluidity of the erythrocytes was tested by a slightly modified version of the method reported in the Journal of Clinical Pathology, 29, 855-858 (1976). Control animals were treated similarly, except that the carboxymethylcellulose solution contained no active compound. The results are reported as the mean values for each group plus or minus the statistical error and the statistical significance was calculated by comparison with the control group.

[7] = tested on: righting reflex and spontaneous locomotive activity; test: Brain concussive test; type: in vivo; conditions: 10 mg/kg intraperitoneally, 17 mice
Procedure: The test compound, suspended in an aqueous solution of carboxymethylcellulose, was administered intraperitoneally to mice. After 30 minutes, a 16 g weight was dropped from a height of 50 cm onto the head of each mouse, and the time was measured for each mouse to recover its righting reflex and spontaneous locomotive activity.
A similar experiment was carried out as a control, using the carboxymethylcellulose solution without any active compound.
The results are reported in Table 6 as the mean time (in seconds) plus or minus the statistical error. There were 20 mice in the control group and 17 mice in the group to which the test compound was administered.

[8] = tested on: anoxia-induced cerebral dysfunction; test: Promotion of recovery from anoxia-induced cerebral dysfunction (EEG recovery); type: in vivo, rat; conditions: breathing terminated 120 seconds
Procedure: In this experiment, the breathing of a rat was terminated for sufficient time for its EEG (electroencephalograph) trace to become flat and the time required for the EEG to show further activity after breathing had restarted was determined.
The rat was immobilized by the administration of pancuronium bromide, and its spontaneous EEG was recorded. After the rat had been roused from anaesthesia, the compound under test suspended in an aqueous solution of carboxymethylcellulose was administered intraperitoneally to the rat. Throughout the experiment, the rat was caused to breathe artificially; 30 minutes after administration of the test compound, artificial breathing was terminated for 120 seconds. After breathing again commenced, the time required for the EEG to recover (the recovery time) was determined.
A control experiment was carried out in which a carboxymethylcellulose suspension alone was administered with no active compound.
The recovery time is reported in the Table in seconds as the mean of the recovery times of all of the animals in the relevant test group plus or minus the statistical error.

[9] = tested on: brain of rats with cerebral ischaemia; test: Effect on sugar and high energy phosphate metabolism in the brain of rats with cerebral ischaemia; type: in vivo, rat; conditions: 1 mg/kg or 10 mg/kg intraperitoneal
Procedure: Cerebral ischaemia was induced in rats and the sugar and high energy phosphate metabolism in the brain was investigated.
Both carotid arteries of the test rats were ligated and, at the same time, the compound under test was administered by intraperitoneal injection. The amounts of sugars and metabolic products thereof (glucose and lactic acid) and high energy phosphate (ATP-adenosine triphosphate) in the brain were determined by the method of Lowry and Passonneau (A flexible system of enzymatic analysis, Academic Press, New York, 1972). When Compound No. 131 was administered at levels of 1 mg/kg or 10 mg/kg, there was observed an increase in glucose levels, a decrease in lactic acid levels and an increase in ATP levels in the rats with cerebral ischaemia.

Structure (SMILES): Nc1ncnc2c1ncn2C1OC2=CC(CC(=O)O)(C(=O)O)OC2[C@H]1O (stereo partly shown) [Compound No. 133, 7'-deoxygriseolic acid]
- IC50 [1]: 140 nM
- IC50 [2]: 1100 nM
- Duration (T 1/2) ([3]; 10 mg/kg): > 1 h
- Increase in cerebral blood flow (Vp), ratio to papaverine 1 mg/kg ([3]; 10 mg/kg): 10

Structure (SMILES): CCC(=O)Nc1ncnc2c1ncn2C1OC2=CC(C(=O)OC(c3ccccc3)c3ccccc3)(C(OC(=O)CC)C(=O)OC(c3ccccc3)c3ccccc3)OC2C1OC(=O)CC (stereo not shown) [Compound No. 10, dibenzhydryl N^6,O^2',O^7' -tripropionylgriseolate]
- blood viscosity, shear rates without significant rise after ligation ([4]; 30 mg/kg oral): ++++
- blood viscosity, shear rates without significant rise after ligation ([4]; 50 mg/kg oral): ++++
- minimal effective dose ([4]; oral): ≥ 50 mg/kg

Structure (SMILES): Nc1ncnc2c1ncn2C1OC2=CC(C(=O)O)([C@@H](O)C(=O)O)OC2[C@H]1O (stereo partly shown) [Griseolic acid, griseolic acid]
- mortality after day 3 ([5]; after day 3): 3/5
- mortality for the first two days ([5]; first two days): 0/5
- mortality at the end of the test ([5]; four days, male Fisher rats): 3/5
- ability to inhibit cAMP phosphodiesterase ([1]; in words): has the ability to inhibit the activity of cyclic adenosine monophosphate (cAMP) phosphodiesterase (PDE)

Structure (SMILES): CC(=O)OC1C2OC(C(=O)OC(c3ccccc3)c3ccccc3)(C(OC(C)=O)C(=O)OC(c3ccccc3)c3ccccc3)C=C2OC1n1cnc2c(=O)[nH]cnc21 (stereo not shown) [Compound No. 71, dibenzhydryl O^2',O^7' -diacetyl-6-desamino-6-hydroxygriseolate]
- Total number of passing erythrocytes × 10^9 [6]: 3.00 ± 0.16 × 10^9
- Duration (T 1/2) ([3]; 10 mg/kg): > 1 h
- Increase in cerebral blood flow (Vp), ratio to papaverine 1 mg/kg ([3]; 10 mg/kg): 3.0

Structure (SMILES): O=C(O)CC1(C(=O)O)C=C2OC(n3cnc4c(=O)[nH]cnc43)C(O)C2O1 (stereo not shown) [Compound No. 138, 6-desamino-7'-deoxy-6-hydroxygriseolic acid]
- IC50 [1]: 140 nM
- IC50 [2]: 50 nM
- Duration (T 1/2) ([3]; 10 mg/kg): > 1 h
- Increase in cerebral blood flow (Vp), ratio to papaverine 1 mg/kg ([3]; 10 mg/kg): 5.5

Structure (SMILES): O=C(O)[C@H](O)C1(C(=O)O)C=C2OC(n3cnc4c(S)ncnc43)[C@H](O)C2O1 (stereo partly shown) [Compound No. 54, 6-desamino-6-mercaptogriseolic acid]
- IC50 [1]: 19000 nM
- IC50 [2]: 9100 nM
- minimal effective dose ([4]; oral): ≥ 50 mg/kg

Structure (SMILES): Nc1ncnc2c1ncn2C1OC23OC(C(=O)OC(c4ccccc4)c4ccccc4)C(C(=O)OC(c4ccccc4)c4ccccc4)(OC2C1O)C3Br (stereo not drawn) [Compound No. 202, dibenzhydryl 4',7'-anhydro-5'α-bromo-4'α-hydroxygriseolate]
- blood viscosity, shear rates without significant rise after ligation ([4]; 10 mg/kg oral): +
- dose levels at which significant improvement (i.e. stabilisation) in blood viscosity was achieved ([4]; oral, in words): all dose levels
- Recovery time, righting reflex [7]: 20.9 ± 2.9 s
- Recovery time, spontaneous locomotive activity ([7]; P < 0.05): 72.8 ± 15.7 s

Structure (SMILES): COC(=O)C1=C(C)NC(C)=C(C(=O)OCCN(C)Cc2ccccc2)C1c1cccc([N+](=O)[O-])c1 (stereo not shown) [Nicardipine, reference compound]
- Duration (T 1/2) ([3]; 0.01 mg/kg): 0.233 h
- Increase in cerebral blood flow (Vp), ratio to papaverine 1 mg/kg ([3]; 0.01 mg/kg): 3.2

Structure (SMILES): CC(=O)O[C@H](C(=O)O)C1(C(=O)O)C=C2OC(n3cnc4c(N)ncnc43)[C@H](O)C2O1 (stereo partly drawn) [Compound No. 141, 7'(S)-acetoxy-7'-deoxygriseolic acid]
- IC50 [1]: 220 nM
- IC50 [2]: 1050 nM
- Duration (T 1/2) ([3]; 10 mg/kg): > 1 h
- Increase in cerebral blood flow (Vp), ratio to papaverine 1 mg/kg ([3]; 10 mg/kg): 9.2

Structure (SMILES): O=C(Nc1ncnc2c1ncn2C1OC2=CC(C(=O)O)([C@@H](OC(=O)c3ccccc3)C(=O)O)OC2[C@H]1OC(=O)c1ccccc1)c1ccccc1 (stereo partly shown) [Compound No. 131, N^6,O^2',O^7' -tribenzoylgriseolic acid]
- Recovery time ([8]; 10 mg/kg intraperitoneally, n=8): 14.5 ± 1.2 s
- Recovery time ([8]; 30 mg/kg intraperitoneally, n=8, P < 0.05): 13.8 ± 1.3 s
- ATP levels in brain [9]: increase
- glucose levels in brain [9]: increase
- lactic acid levels in brain [9]: decrease
- Total number of passing erythrocytes × 10^9 [6]: 3.30 ± 0.28 × 10^9
- blood viscosity, shear rates without significant rise after ligation ([4]; 30 mg/kg oral): +
- blood viscosity, shear rates without significant rise after ligation ([4]; 100 mg/kg oral): ++++
- minimal effective dose ([4]; oral): ≥ 30 mg/kg
